Measurements taken from patent publication US20190060330A1, “APPLICATION OF 4-HYDROXY SALICYLANILIDE IN PREPARATION OF ANTI-MYELOMA OR ANTI-LYMPHOMA DRUGS” (priority 2016, published 2019).
Where “and” joins values, the source holds several entries; their conditions need not be identical. Equal entries are not always repeated. Entries after “also recorded” stand apart in the source; their conditions may differ.

Key:
H929 cells [1] = assay: CCK8 cytotoxicity, H929 multiple myeloma cells; format: cell-based; conditions: Homo sapiens, NCI-H929, 72 h
Procedure: (§1) (1) Cell lines: human multiple myeloma cells (H929 cells, OPM2 cells, U266 cells, OCI-MY5 cells, RPMI 8266 cells) (from ATCC of USA. The cells were passaged and preserved in the applicant's laboratory), were cultured in a 1640 culture medium (containing 10% fetus bovine serum).
(§2) The cells were cultured in 1640 medium (containing 10% fetal bovine serum, pH 7.2) supplemented with 2 mmol/L glutamine. The cells were cultured in a cell culture incubator at 37° C., 5% CO2.
(§3) A single-cell suspension of human multiple myeloma cells (H929 cells, OPM2 cells, U266 cells, OCI-MY5 cells, RPMI 8266 cells) was taken for cell counting, and the cell concentration was adjusted to 2×10^5 cells/mL. 95 μL of the above cell suspension was added into each well of a 96-well culture plate, and then 5 μL of the drug prepared with the medium was added at different concentrations, while the same volume of culture medium was added in the control group. Three parallel wells were set in each group. The plate was subjected to continuous culture for 72 h. 2 hours before the end of the culture, 10 μL of CCK8 reagent was added into each well, and the plate was continued to culture in a CO2 incubator. After 2 hours, the OD value of each well at 450 nm was detected by an automatic microplate reader. […]

OPM2 cells = assay: CCK8 cytotoxicity, OPM2 multiple myeloma cells; format: cell-based; conditions: Homo sapiens, OPM-2, 72 h
Procedure: as §1, §2, §3

U266 cells = assay: CCK8 cytotoxicity, U266 multiple myeloma cells; format: cell-based; conditions: Homo sapiens, U-266, 72 h
Procedure: as §1, §2, §3

OCI-MY5 cells = assay: CCK8 cytotoxicity, OCI-MY5 multiple myeloma cells; format: cell-based; conditions: Homo sapiens, 72 h
Procedure: as §1, §2, §3

RPMI 8266 cells = assay: CCK8 cytotoxicity, RPMI 8266 multiple myeloma cells; format: cell-based; conditions: Homo sapiens, RPMI8266, 72 h
Procedure: as §1, §2, §3

SUDHL-4 cells = assay: CCK8 cytotoxicity, SUDHL-4 lymphoma cells; format: cell-based; conditions: Homo sapiens, SU-DHL-4, 72 h
Procedure: (§4) A single-cell suspension of human multiple myeloma cells (H929 cells, OPM2 cells, U266 cells, OCI-MY5 cells, RPMI 8266 cells) was taken for cell counting, and the cell concentration was adjusted to 2×10^5 cells/mL. 95 μL of the above cell suspension was added into each well of a 96-well culture plate, and then 5 μL of the drug prepared with the medium was added at different concentrations, while the same volume of culture medium was added in the control group. Three parallel wells were set in each group. The plate was subjected to continuous culture for 72 h. 2 hours before the end of the culture, 10 μL of CCK8 reagent was added into each well, and the plate was continued to culture in a CO2 incubator. After 2 hours, the OD value of each well at 450 nm was detected by an automatic microplate reader. Cell viability and inhibition rate were calculated: cell viability (%)=(OD mean of experimental well/OD mean of control well)×100%. Cell inhibition rate (%)=100%−cell viability (%). The fitting function was used to determine the IC50 of the drug concentration when the cell growth was inhibited by 50%. The experiment was in triplicate.
(§5) Cell lines: human lymphoma cells (SUDHL-4 cells, OCI-LY1 cells, OCI-LY8 cells, DB cells, NU-DUL-1 cells, U2932 cells, TMD8 cells)(from ATCC. USA. The cells were passaged and preserved in the applicant's laboratory). IMDM (Gibco Co., USA). […]

OCI-LY1 cells = assay: CCK8 cytotoxicity, OCI-LY1 lymphoma cells; format: cell-based; conditions: Homo sapiens, 72 h
Procedure: as §4, §5

OCI-LY8 cells [2] = assay: CCK8 cytotoxicity, OCI-LY8 lymphoma cells; format: cell-based; conditions: Homo sapiens, 72 h
Procedure: as §4, §5

DB cells = assay: CCK8 cytotoxicity, DB lymphoma cells; format: cell-based; conditions: Homo sapiens, 72 h
Procedure: as §4, §5

NU-DUL-1 cells = assay: CCK8 cytotoxicity, NU-DUL-1 lymphoma cells; format: cell-based; conditions: Homo sapiens, 72 h
Procedure: as §4, §5

U2932 cells = assay: CCK8 cytotoxicity, U2932 lymphoma cells; format: cell-based; conditions: Homo sapiens, 72 h
Procedure: as §4, §5

TMD8 cells = assay: CCK8 cytotoxicity, TMD8 lymphoma cells; format: cell-based; conditions: Homo sapiens, 72 h
Procedure: as §4, §5

H929 cells [3] = assay: Animal experiment for multiple myeloma: subcutaneous H929 tumors in nude mice; format: in vivo, BALB/C nude mice; conditions: for Tumor volume, individual mice No. 1-4 / Tumor volume, mean: caudal vein
Procedure: (1) Cell line: human multiple myeloma cells (H929 cells) (from ATCC, USA. The cells were passaged and preserved in the applicant's laboratory), were cultured in a 1640 culture medium (containing 10% fetus bovine serum).
(2) Experimental animals: Male BALB/C nude mice (4-6 week old, purchased from Shanghai Sippr-BK laboratory animal Co. Ltd), were housed in an SPF condition (Center Laborotory Animal Room, Shanghai Tenth People's Hospital).
The cells were cultured in 1640 a 1640 culture medium (containing 10% fetus bovine serum, pH 7.2) supplemented with 2 mmol/L glutamine. The resultant was cultured in a incubator at 37° C. under 5% CO2 environment.
(§6) The 1640 medium containing 3.5×10^6 H929 cells was injected subcutaneously into the right axilla of the nude mice, and when the tumors grew to a measurable size, the mice were randomly assigned into the control group and the administration group. The nude mice in the administration group were injected through caudal vein with 4-hydroxy salicylanilide at 50 mg/kg and 100 mg/kg per day. The nude mice in the control group were injected with the same volume of solvent (200 μL, 5% DMSO+4% castor oil+91% normal saline). The tumor sizes were measured every two days (measuring the length and width of the tumor, tumor volume=0.5×(width)^2×length). The mice were sacrificed after a 22-day administration and the tumors were taken for taking photos.

OCI-LY8 cells [4] = assay: Animal experiment against lymphoma: subcutaneous OCI-LY8 tumors in nude mice; format: in vivo, BALB/C nude mice; conditions: 60 mg/kg every other day, caudal vein, 18 days
Procedure: (1) Cell lines: human lymphoma cells (OCI-LY8 cells) (from ATCC, USA. The cells were passaged and preserved in the applicant's laboratory) were cultured in IMDM (containing 10% fetus bovine serum).
(2) Experimental animals: referring to Example 2.
as §6, with “IMDM” for “1640 medium”, “3×10^6 OCI-LY8” for “3.5×10^6 H929”, “60” for “50”, “ever other” for “and 100 mg/kg per”, “volume=4π/3×(width/2)^2×(length/2)).” for “volume=0.5×(width)^2×length).”, “18-day” for “22-day”

[5] = target: T1, Ribonucleotide reductase (RR) (Homo sapiens, UniProt P31350); conditions: shown in studies; cited from earlier work
T1 sequence (P31350 1-389): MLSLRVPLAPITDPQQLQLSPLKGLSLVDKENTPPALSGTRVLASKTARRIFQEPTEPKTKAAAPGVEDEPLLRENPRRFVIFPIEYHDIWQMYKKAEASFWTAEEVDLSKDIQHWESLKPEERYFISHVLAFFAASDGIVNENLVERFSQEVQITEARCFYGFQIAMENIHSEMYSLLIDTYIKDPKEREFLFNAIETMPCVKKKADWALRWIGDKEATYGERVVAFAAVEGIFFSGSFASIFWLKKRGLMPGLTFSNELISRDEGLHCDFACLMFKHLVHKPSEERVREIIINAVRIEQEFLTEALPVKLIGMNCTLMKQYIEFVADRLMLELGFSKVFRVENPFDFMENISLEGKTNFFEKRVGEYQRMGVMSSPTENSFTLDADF

## O=C(Nc1ccc(O)cc1)c1ccccc1O
H929 cells [1]
  IC50: 179 µM
OPM2 cells
  IC50: 84 µM
U266 cells
  IC50: 271 µM
OCI-MY5 cells
  IC50: 211 µM
RPMI 8266 cells
  IC50: 170 µM
SUDHL-4 cells
  IC50: 73 µM
OCI-LY1 cells
  IC50: 117 µM
OCI-LY8 cells [2]
  IC50: 76 µM
DB cells
  IC50: 178 µM
NU-DUL-1 cells
  IC50: 188 µM
U2932 cells
  IC50: 156 µM
TMD8 cells
  IC50: 164 µM
H929 cells [3]; 50 mg/kg per day, day 0
  Tumor volume, individual mice No. 1-4: 0.08 cm^3 (2×) and 0.11 cm^3 and 0.10 cm^3
  Tumor volume, mean: 0.10 cm^3
H929 cells [3]; 50 mg/kg per day, day 2
  Tumor volume, individual mice No. 1-4: 0.15 cm^3 (2×) and 0.17 cm^3 and 0.11 cm^3
  Tumor volume, mean: 0.15 cm^3
H929 cells [3]; 50 mg/kg per day, day 4
  Tumor volume, individual mice No. 1-4: 0.24 cm^3 and 0.25 cm^3 and 0.22 cm^3 and 0.14 cm^3
  Tumor volume, mean: 0.21 cm^3
H929 cells [3]; 50 mg/kg per day, day 6
  Tumor volume, individual mice No. 1-4: 0.38 cm^3 (2×) and 0.30 cm^3 and 0.27 cm^3
  Tumor volume, mean: 0.33 cm^3
H929 cells [3]; 50 mg/kg per day, day 8
  Tumor volume, individual mice No. 1-4: 0.58 cm^3 and 0.50 cm^3 and 0.37 cm^3 (2×)
  Tumor volume, mean: 0.45 cm^3
H929 cells [3]; 50 mg/kg per day, day 10
  Tumor volume, individual mice No. 1-4: 0.77 cm^3 and 0.63 cm^3 and 0.64 cm^3 and 0.49 cm^3
  Tumor volume, mean: 0.63 cm^3
H929 cells [3]; 50 mg/kg per day, day 12
  Tumor volume, individual mice No. 1-4: 0.99 cm^3 and 0.78 cm^3 and 0.80 cm^3 and 0.74 cm^3
  Tumor volume, mean: 0.83 cm^3
H929 cells [3]; 50 mg/kg per day, day 14
  Tumor volume, individual mice No. 1-4: 1.20 cm^3 and 1.15 cm^3 and 0.97 cm^3 and 1.03 cm^3
  Tumor volume, mean: 1.09 cm^3
H929 cells [3]; 50 mg/kg per day, day 16
  Tumor volume, individual mice No. 1-4: 1.53 cm^3 and 1.47 cm^3 and 1.31 cm^3 and 1.35 cm^3
  Tumor volume, mean: 1.41 cm^3
H929 cells [3]; 50 mg/kg per day, day 18
  Tumor volume, individual mice No. 1-4: 2.08 cm^3 and 1.81 cm^3 and 1.54 cm^3 and 1.71 cm^3
  Tumor volume, mean: 1.79 cm^3
H929 cells [3]; 50 mg/kg per day, day 20
  Tumor volume, individual mice No. 1-4: 2.59 cm^3 and 2.22 cm^3 and 1.77 cm^3 and 2.12 cm^3
  Tumor volume, mean: 2.17 cm^3
H929 cells [3]; 50 mg/kg per day, day 22
  Tumor volume, individual mice No. 1-4: 3.39 cm^3 and 2.44 cm^3 and 2.19 cm^3 and 2.89 cm^3
  Tumor volume, mean: 2.72 cm^3
H929 cells [3]; 100 mg/kg per day, day 0
  Tumor volume, individual mice No. 1-4: 0.10 cm^3 and 0.08 cm^3 and 0.04 cm^3 and 0.07 cm^3
  Tumor volume, mean: 0.07 cm^3
H929 cells [3]; 100 mg/kg per day, day 2
  Tumor volume, individual mice No. 1-4: 0.12 cm^3 and 0.09 cm^3 and 0.08 cm^3 (2×)
  Tumor volume, mean: 0.09 cm^3
H929 cells [3]; 100 mg/kg per day, day 4
  Tumor volume, individual mice No. 1-4: 0.13 cm^3 (2×) and 0.14 cm^3 and 0.10 cm^3
  Tumor volume, mean: 0.13 cm^3
H929 cells [3]; 100 mg/kg per day, day 6
  Tumor volume, individual mice No. 1-4: 0.17 cm^3 (2×) and 0.15 cm^3 and 0.13 cm^3
  Tumor volume, mean: 0.16 cm^3
H929 cells [3]; 100 mg/kg per day, day 8
  Tumor volume, individual mice No. 1-4: 0.26 cm^3 and 0.20 cm^3 and 0.25 cm^3 and 0.17 cm^3
  Tumor volume, mean: 0.22 cm^3
H929 cells [3]; 100 mg/kg per day, day 10
  Tumor volume, individual mice No. 1-4: 0.39 cm^3 and 0.23 cm^3 (2×) and 0.31 cm^3
  Tumor volume, mean: 0.29 cm^3
H929 cells [3]; 100 mg/kg per day, day 12
  Tumor volume, individual mice No. 1-4: 0.53 cm^3 and 0.31 cm^3 and 0.39 cm^3 and 0.25 cm^3
  Tumor volume, mean: 0.37 cm^3
H929 cells [3]; 100 mg/kg per day, day 14
  Tumor volume, individual mice No. 1-4: 0.77 cm^3 and 0.42 cm^3 and 0.44 cm^3 and 0.27 cm^3
  Tumor volume, mean: 0.47 cm^3
H929 cells [3]; 100 mg/kg per day, day 16
  Tumor volume, individual mice No. 1-4: 0.93 cm^3 and 0.49 cm^3 and 0.50 cm^3 and 0.32 cm^3
  Tumor volume, mean: 0.56 cm^3
H929 cells [3]; 100 mg/kg per day, day 18
  Tumor volume, individual mice No. 1-4: 1.20 cm^3 and 0.57 cm^3 (2×) and 0.31 cm^3
  Tumor volume, mean: 0.66 cm^3
H929 cells [3]; 100 mg/kg per day, day 20
  Tumor volume, individual mice No. 1-4: 1.27 cm^3 and 0.63 cm^3 and 0.65 cm^3 and 0.34 cm^3
  Tumor volume, mean: 0.72 cm^3
H929 cells [3]; 100 mg/kg per day, day 22
  Tumor volume, individual mice No. 1-4: 1.39 cm^3 and 0.71 cm^3 and 0.80 cm^3 and 0.40 cm^3
  Tumor volume, mean: 0.82 cm^3
H929 cells [3]; H929 tumors in nude mice, 50 and 100 mg/kg per day, 22 days, dose-dependent, P<0.01 at day 22
  Inhibition of tumor growth in animals (in words): significantly inhibit the tumor growth; also recorded: effective in inhibiting the growth of multiple myeloma
OCI-LY8 cells [4]
  Inhibition of growth of lymphoma in nude mice (in words): effectively inhibit the growth of lymphoma
[5]
  Inhibition of Ribonucleotide reductase (in words): inhibitor
